Reference: patent publication US20030114375A1, “Method for treating cystic fibrosis” (The Government of the USA, Dept of Health and Human …, priority 1994, published 2003)
Entries after “also recorded” stand apart in the source; their conditions may differ. Where two headings read alike, the source gives them in different places.

How the values were obtained:
CFPAC cells = assay: [36Cl]- efflux from CFPAC cells
A1-adenosine receptor = target: T1, A1-adenosine receptor (Rattus norvegicus, UniProt P25099); assay: Inhibition of [3H]N6-phenylisopropyladenosine binding to A1 receptors
T1 construct: Rat cerebral cortical membranes and striatal membranes were prepared; from tissue; host or cells: rat cerebral cortex membranes
T1 sequence (P25099 1-326): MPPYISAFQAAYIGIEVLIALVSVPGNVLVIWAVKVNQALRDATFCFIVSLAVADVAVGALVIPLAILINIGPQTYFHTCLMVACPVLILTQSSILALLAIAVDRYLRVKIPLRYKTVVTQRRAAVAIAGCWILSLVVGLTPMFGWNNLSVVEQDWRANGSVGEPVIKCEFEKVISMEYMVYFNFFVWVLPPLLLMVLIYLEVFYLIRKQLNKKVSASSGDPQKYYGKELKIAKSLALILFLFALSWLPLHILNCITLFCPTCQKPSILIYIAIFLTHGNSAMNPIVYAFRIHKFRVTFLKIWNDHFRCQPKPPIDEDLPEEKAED
Experimental: (§1) Solid samples of the adenosine derivatives were dissolved in dimethyl sulfoxide (DMSO) and stored in the art at. −20° C. The stock solutions were diluted with DMSO to a concentration of ≦0.1 mM prior to addition to the aqueous medium. The final concentration of DMSO in the assay medium was generally 2%.
Inhibition of binding of 1 nM [^3H]N^6-phenylisopropyladenosine (Dupont NEN, Boston, Mass.) to A1 receptors in rat cerebral cortex membranes was measured as described in Schwabe et al., Naunyn-Schmiedeberg's Arch. […] Membranes (^˜100 μg protein per tube) were incubated for 1.5 hours at 37° C. in a total volume of 0.5 ml of 50 mM tris hydrochloride at pH 7.4. Test drugs were dissolved in DMSO and added in 10 μl aliquots, resulting in a final DMSO concentration of 2%. Bound and free radioligand were separated by addition of 3 ml of a buffer containing 50 mM tris hydrochloride, at pH 7.4 at 5° C., followed by vacuum filtration using a Brandel Cell Harvester (Brandel, Gaithersburg, Md.) and a Whatman GF/B glass fiber filter with additional washes totaling 9 ml of buffer. Non-specific binding was determined with 10 μM 2-chloroadenosine.
(§2) At least six different concentrations spanning three orders of magnitude, adjusted appropriately for the IC50 of each compound, were used.

A2a-adenosine receptor = target: T2, A2a-adenosine receptor (Rattus norvegicus, UniProt P30543); assay: Inhibition of [3H]CGS 21680 binding to A2a receptors; details: for Ki: rat striatal membranes, 5 nM [3H]CGS 21680, read-out: Ki, μM(A2)
T2 construct: Rat cerebral cortical membranes and striatal membranes were prepared; from tissue; host or cells: rat striatal membranes
Experimental: as §1
Membranes (^˜80 μg protein per tube) were incubated for one hour at 25° C. in a total volume of 0.5 ml of a buffer solution consisting of […] tris hydrochloride and 10 mM MgCl2 at pH 7.4. Test drugs were dissolved in DMSO and added in 10 μl aliquots, resulting in a final DMSO concentration of 2%. Non-specific binding was defined using 20 μM 2-chloroadenosine. Filtration was carried out using a Brandel Cell Harvester, as above, using the tris.HCl/MgCl2 buffer recited hereinabove as the washing buffer.
as §2

[1] = rat cerebral cortex membranes, 1 nM [3H]PIA, read-out: Ki, μM(A1)

T2 sequence (P30543 whole entry): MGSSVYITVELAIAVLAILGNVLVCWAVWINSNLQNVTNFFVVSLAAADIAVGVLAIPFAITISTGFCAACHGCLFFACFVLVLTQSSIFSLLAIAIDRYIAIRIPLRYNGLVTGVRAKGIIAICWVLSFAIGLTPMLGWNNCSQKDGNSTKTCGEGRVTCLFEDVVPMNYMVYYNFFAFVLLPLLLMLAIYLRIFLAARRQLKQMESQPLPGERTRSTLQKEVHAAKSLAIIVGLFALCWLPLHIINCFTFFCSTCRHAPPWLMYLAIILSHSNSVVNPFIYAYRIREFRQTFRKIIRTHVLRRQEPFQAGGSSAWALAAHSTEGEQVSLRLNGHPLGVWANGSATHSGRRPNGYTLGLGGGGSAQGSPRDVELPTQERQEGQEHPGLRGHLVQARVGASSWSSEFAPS

Row | SMILES | Conc. max. (nM): concentration at maximum impact upon chloride efflux (CFPAC cells) | thresh (nM): minimum concentration required to detect an effect upon chloride efflux (CFPAC cells) | Ki (A1-adenosine receptor; [1]) | Ki (A2a-adenosine receptor) | also measured
1 | Cn1c(=O)c2c(ncn2C)n(C)c1=O [Compound 2, 1,3,7-trimethylxanthine, reference compound] | 10 nM | 1 nM |  |  | 
2 | CCCn1c(=O)c2c(nc(C3CCCC3)n2C)n(CCC)c1=O [Compound 6, 1,3-dipropyl-7-methyl-8-cyclopentylxanthine] | 1000 nM | 30 nM | 2.3 µM | 11.4 ± 1.4 µM | Affinity for A1 receptor (A1-adenosine receptor): low affinity; Chloride efflux stimulation (summary words) (CFPAC cells): stimulate chloride efflux at μM or lesser concentrations; also recorded: substantial efflux activity at low concentration ranges; % control: chloride efflux at maximum impact relative to control (CFPAC cells; at Conc. max.): 180 ± 40%; % control: chloride efflux at minimum detection relative to control (CFPAC cells; at threshold concentration): 125 ± 30%; Affinity for A2 receptor (A2a-adenosine receptor): low affinity
3 | CCCn1c(=O)c2[nH]c(C3CCC(F)C3)nc2n(CCC)c1=O (stereo not drawn) [Compound 9] | >>300 nM |  | 0.042 µM |  | 
4 | CCCn1c(=O)c2[nH]c(C3CCC(I)C3)nc2n(CCC)c1=O (stereo not drawn) [Compound 10] | >>300 nM |  | 0.058 µM |  | 
5 | CCCn1c(=O)c2[nH]c(C3C=CCC3)nc2n(CCC)c1=O (stereo not drawn) [Compound 11] | >>300 nM |  | 0.045 µM | 0.64 ± 0.061 µM | 
6 | Cn1c(=O)c2c(nc(C3CCCCC3)n2C)n(C)c1=O [Compound 14, 8-cyclohexyl caffeine] |  | 3 nM |  |  | Chloride efflux stimulation (summary words) (CFPAC cells): stimulate chloride efflux at μM or lesser concentrations; also recorded: substantial efflux activity at low concentration ranges
7 | CCn1c(C2CCCCC2)nc2c1c(=O)n(C)c(=O)n2C [Compound 15] | >>10^4 nM |  | 6.66 ± 0.99 µM | 3.23 ± 0.36 µM | 
8 | Cn1c(=O)c2c(nc(C3CCCCC3)n2CC2CC2)n(C)c1=O [Compound 16] | >>10^4 nM |  | 8.23 ± 1.62 µM | 4.53 ± 1.37 µM | 
9 | C=CCn1c(=O)c2[nH]c(C3CCCCC3)nc2n(CC=C)c1=O [Compound 17] | 10^3 nM | 30 nM |  | 4.94 ± 0.68 µM | Ki (A1-adenosine receptor; read-out: Ki for A1 receptors (unit inferred)): ~0.07 µM; Efflux rate as compared to control (FIGS. 9-12) (CFPAC cells; read from the graphs): > 100%
10 | CCCn1c(=O)c2[nH]c(C3CCCCC3)nc2n(CCC)c1=O [Compound 18] | >>10^4 nM |  |  |  | 
11 | Cn1c(=O)c2c(nc(C=Cc3cccc(Cl)c3)n2C)n(C)c1=O [Compound 25, reference compound] | 30 nM | 30 nM |  |  | Chloride efflux stimulation (summary words) (CFPAC cells): stimulate chloride efflux at μM or lesser concentrations
12 | CCCn1c(=O)c2[nH]c(-c3ccc(OCC(=O)NCCN)cc3)nc2n(CCC)c1=O [Compound 26, reference compound] | >>10^4 nM |  |  |  | 
